Experimental findings from patent US20220202852A1, “METHODS AND COMPOSITIONS OF AQUEOUS HYPOBROMOUS ACID FOR THE TREATMENT AND PREVENTION OF INFLAMMATORY CONDITIONS” (Briotech, Inc., priority 2020, published 2022) are described below.

Data set [1] deals with human skin and mucous membranes, including conjunctiva. Briefly: Safety of topically applied freshly prepared aqueous HOBr. Type of data set: in vivo. As to conditions: HOBr solution made from HOCl containing 200 ppm of Cl plus an equivalent of NaBr. The text has this: A solution of HOBr was made by addition of an equivalent of NaBr to a solution of HOCl containing 200 ppm of Cl.

The next data set has as its system E. coli. Description: Comparative antimicrobial efficacy of HOBr and HOCl solutions vs suspensions. Type of data set: cell-based. As to conditions: 20 s exposure. The procedure:
(§1) FIGS. 3A-3C compare antimicrobial efficacy comparison of HOBr and HOCl solutions: E. coli, 20 s exposure (3A); S. aureus, 40 s exposure (3B); and A. niger, 40 s exposure (3C). HOBr=diagonal lines; HOCl=stippling.
(§2) Preparations of HOCl stored at 22° C. for several weeks and freshly prepared HOBr solutions were compared in their antimicrobial properties versus suspensions of E. coli, S. aureus, and A. niger (see FIG. 3).

For a further data set, the system named is S. aureus. The data set is described as above. It counts as cell-based. As to conditions: 40 s exposure. The procedure:
as §1, §2

Data set [2] concerns spores of Bacillus subtilis. Description: Inactivation of resistant spores by HOBr/HOCl solutions. Type of data set: cell-based. As to conditions: 20 seconds contact. On the procedure:
Hypobromous acid (HOBr) was prepared by the exposure of a slight excess of one equivalent of aqueous bromide ion (as NaBr) to one equivalent of HOCl. This solution was prepared fresh for use in tests for inactivation of resistant microbial organisms.
Exposures as brief as 20 seconds to HOBr at approximately 25 ppm were sufficient to produce LRV of 6. In the same experimental protocol HOC1 at 230 ppm was required to produce 6 LRV in the same contact time. As soon as the HOCl concentration used was below 230 ppm, the LRVs fell into the 2-4 range.

The test system of a further data set is A. niger. Briefly: Comparative antimicrobial efficacy of HOBr and HOCl solutions vs suspensions. It counts as cell-based. As to conditions: all concentrations tested, 40 s exposure. On the procedure:
as §1, §2

The mark [3] stands for this setting: lower concentrations (<115 ppm).

`OBr` [HOBr, Hypobromous acid]: the “adverse effects on epithelial surfaces after topical application” value in data set [1] is reported as “without any indication of adverse effects”. In addition, the “inactivating E. coli, comparative efficacy” value in the data set on E. coli (high concentrations (≥115 ppm)) is “equally effective”; in the data set on E. coli (setting [3]), “markedly more effective than HOCl”. Besides, the results for the “inactivating S. aureus, comparative efficacy” value in the data set on S. aureus (high concentrations (≥115 ppm)) and with S. aureus (setting [3]) were “equally effective” and “markedly more effective than HOCl”, respectively. The “LRV, inactivation of Bacillus subtilis spores” value in data set [2] (approximately 25 ppm) came to 6.

For `OCl` [HOCl, hypochlorous acid], the “inactivating E. coli, comparative efficacy” value in the data set on E. coli (high concentrations (≥115 ppm)) is “equally effective”. Moreover, the “efficacy against A. niger, comparative” value with A. niger is “equally or more effective than HOBr”. The “inactivating S. aureus, comparative efficacy” value in the data set on S. aureus (high concentrations (≥115 ppm)) is “equally effective”. Moreover, the results for the “LRV, inactivation of Bacillus subtilis spores” value in data set [2] (230 ppm), in data set [2] (approximately 25 ppm) and in data set [2] (concentration below 230 ppm) were 6, “no detectable effect” and 2-4, respectively.
